Test results from patent US20200270232A1, “INHIBITORS OF INTEGRATED STRESS RESPONSE PATHWAY” (Praxis Biotech LLC, priority 2019, published 2020).

Legend:
ATF4 = ATF4 expression inhibition assay (ATF4 luciferase reporter); assay type: cell-based; conditions: Homo sapiens, HEK-293T; HEK293T cells carrying the ATF4 luciferase reporter, 100 nM thapsigargin (Tg), 3 hours; read-out: ATF4 inhbition IC50
Protocol: The ATF4 reporter was prepared by fusing the human full length 5′UTR of ATF4 (NCBI Accession No. BC022088.2) upstream of the firefly luciferase coding sequence lacking the initiator methionine. The fused sequence was cloned into pLenti-EF1a-C-Myc-DDK-IRES-Puro cloning vector (Origen # PS 100085) using standard methods. Virus production was carried out by using Lenti-X™ Packaging Single Shots Protocol (Clonetech #631276). Viral particles were used to transduce HEK293T cells (ATCC # CRL-3216, ATCC Manassas, Va.), which were subsequently selected with puromycin to generate stable cell line. Cells were maintained at 37° C. and 5% CO2 in DMEM-F12 (Hyclone # SH30023.02) supplemented with 10% heat-inactivated fetal bovine serum (Gibco #16000-044), 2 mM L-glutamine (Gibco #25030-081), 100 U/ml penicillin, and 100 μg/ml streptomycin (Gibco #15140-122).
HEK293T cells carrying the ATF4 luciferase reporter were plated on 96-well plates (Nunc) at 10,000 cells per well. Cells were treated two days after seeding with 100 nM thapsigargin (Tg) (Sigma-Aldrich # T9033) in the presence of different concentrations of selected compounds ranging from 1 nM to 10 μM. Cells without treatment or cells treated with Tg alone were used as controls. Assay plates containing cells were incubated for 3 hours at 37° C.
Luciferase reactions were performed using Luciferase Assay System (Promega # E1501) as specified by the manufacturer. Luminescence was read with an integration time of 1 s and a gain of 110 using a Cytation-5 multi-mode microplate reader (BioTek). Relative luminescence units were normalized to Tg treatment (0% inhibition) and untreated cells (100% inhibition) and the percentage of ATF4 inhibition was calculated.
Accordingly, inhibition of ATF4 expression as a result of the test compound indicates suppression of the ISR pathway.

[1] = tested on: Chinese hamster ovary (CHO) cells; assay: Protein translation assay (puromycin labelling, western blot); assay type: cell-based; conditions: 2 hours, media alone = 100%; for activity at 1 µM: Cricetulus griseus, unstressed CHO cells (without Tg), 1 μM test compound, read-out: % Protein synthesis relative to untreated (1 μM test compound); for % Recovery of protein synthesis (1 μM test compound): stressed CHO cells, 300 nM Tg, Tg alone = 0%
Protocol: Chinese hamster ovary (CHO) cells were maintained at 37° C. and 5% C02 in Dulbecco's Modified Eagle's Media (DMEM) supplemented with 10% fetal bovine serum, 2 mM L-glutamine, 100 U/ml penicillin, and 100 μg/ml streptomycin. After reaching 80% of confluence, cells were detached and seeded on 6 well plates in complete media, allowed to recover overnight and treated for 2 hours with 1 μM of the test compound (to assess protein synthesis levels in unstressed condition), or for 2 hours with 300 nM Tg in the presence of 1 μM of the test compound (to assess the recovery of protein synthesis in a stressed condition). Cells with Tg alone were used as controls.
After the 2 hours treatments, media were replaced by adding 10 μg/ml puromycin (Sigma Aldrich # P8833) in complete media for 30 min. Media were removed and cells were lysed with SDS-PAGE lysis buffer. Lysates were transferred to 1.5 ml tubes and sonicated for 3 min and total protein amount were quantified using BCA Protein Assay Kit (Pierce). Equal amount of protein (30 μg) was loaded on SDS-PAGE gels. Proteins were transferred onto 0.2 μm PVDF membranes (BioRad) and probed with primary antibodies diluted in Tris-buffered saline supplemented with 0.1% Tween 20 (Merck # S6996184 505) and 3% bovine serum albumin (Rockland # BSA-50).
Puromycin (12D10) (Merck # MABE343) and β-actin (Sigma Aldrich # A5441) antibodies were used as primary antibody. A HRP-conjugated secondary antibody (Rockland) was employed to detect immune-reactive bands using enhanced chemiluminescence (ECL Western Blotting Substrate, Pierce). Quantification of protein bands was done by densitometry using ImageJ software.
Percent increase of protein synthesis in unstressed cells (without Tg treatment) in the presence of media alone or certain test compounds is shown in Table 3. The percentage levels were normalized to the media alone condition, which correspond to 100% protein synthesis.
Percent recovery of protein synthesis in stressed cells (with Tg treatment) due to the test compounds at 1 μM is also shown in Table 3. The levels were normalized to the media alone and Tg alone conditions, which correspond to 100% and 0% respectively.

Compound | IC50 (ATF4) | activity at 1 µM [1] | % Recovery of protein synthesis (1 μM test compound) [1]
O=C(NC1CCN(CC(O)COc2ccc(Cl)c(F)c2)C1)c1ccc2cc(Cl)ccc2n1 (stereo not drawn) [Compound 53, 6-chloro-N-(1-(3-(4-chloro-3-fluorophenoxy)-2-hydroxypropyl)pyrrolidin-3-yl)quinoline-2-carboxamide] | > 1 µM | 102% | 37.93%
O=C(NC1CCN(CCCOc2ccc(Cl)c(F)c2)C1)c1ccc2cc(Cl)ccc2n1 (stereo not drawn) [Compound 56, 6-chloro-N-(1-(3-(4-chloro-3-fluorophenoxy)propyl)pyrrolidin-3-yl)quinoline-2-carboxamide] | > 1 µM | 100% | 32.73%
O=C(NCC1CCN(C[C@@H](O)COc2ccc(Cl)c(F)c2)C1)c1ccc2cc(Cl)ccc2n1 (stereo partly drawn) [Compound 80, 6-chloro-N-((1-((R)-3-(4-chloro-3-fluorophenoxy)-2-hydroxypropyl)pyrrolidin-3-yl)methyl)quinoline-2-carboxamide] | > 0.1 µM | 153% | 23.9%
O=C(NCC1CCN(C[C@H](O)COc2ccc(Cl)c(F)c2)C1)c1ccc2cc(Cl)ccc2n1 (stereo partly drawn) [Compound 81, 6-chloro-N-((1-((S)-3-(4-chloro-3-fluorophenoxy)-2-hydroxypropyl)pyrrolidin-3-yl)methyl)quinoline-2-carboxamide] | 1 µM | 134% | 38.7%
O=C(NC1CCC(NC[C@@H](O)COc2ccc(Cl)c(F)c2)C1)c1cc2cc(Cl)ccc2o1 (stereo partly drawn) [Compound 82, 5-chloro-N-(3-(((R)-3-(4-chloro-3-fluorophenoxy)-2-hydroxypropyl)amino)cyclopentyl)benzofuran-2-carboxamide] | > 1 µM | 160% | 176.4%
O=C(NC1CCC(NC[C@H](O)COc2ccc(Cl)c(F)c2)C1)c1cc2cc(Cl)ccc2o1 (stereo partly drawn) [Compound 83, 5-chloro-N-(3-(((S)-3-(4-chloro-3-fluorophenoxy)-2-hydroxypropyl)amino)cyclopentyl)benzofuran-2-carboxamide] | > 1 µM | 129% | 175.2%
O=C(COc1ccc(Cl)c(F)c1)NCC1CCC(NC(=O)COc2ccc(Cl)c(F)c2)C1 (stereo not drawn) [Compound 84, 2-(4-chloro-3-fluorophenoxy)-N-((3-(2-(4-chloro-3-fluorophenoxy)acetamido)cyclopentyl)methyl)acetamide] | > 0.1 µM | 80.3% | 
O=C(COc1ccc(Cl)c(F)c1)NCC1CCC(NC(=O)c2ccc3cc(Cl)ccc3n2)C1 (stereo not drawn) [Compound 85, 6-chloro-N-(3-((2-(4-chloro-3-fluorophenoxy)acetamido)methyl)cyclopentyl)quinoline-2-carboxamide] | < 1 µM | 88% | 
O=C(COc1ccc(Cl)c(F)c1)NCC1CCC(NC(=O)c2cc3cc(Cl)ccc3o2)C1 (stereo not drawn) [Compound 86, 5-chloro-N-(3-((2-(4-chloro-3-fluorophenoxy)acetamido)methyl)cyclopentyl)benzofuran-2-carboxamide] | < 0.1 µM | 94.2% | 
O=C(COc1ccc(Cl)c(F)c1)NC1CCC(CNC(=O)c2ccc3cc(Cl)ccc3n2)C1 (stereo not drawn) [Compound 87, 6-chloro-N-((3-(2-(4-chloro-3-fluorophenoxy)acetamido)cyclopentyl)methyl)quinoline-2-carboxamide] | < 1 µM | 83.9% | 
O=C(COc1ccc(Cl)c(F)c1)NC1CCC(CNC(=O)c2cc3cc(Cl)ccc3o2)C1 (stereo not drawn) [Compound 88, 5-chloro-N-((3-(2-(4-chloro-3-fluorophenoxy)acetamido)cyclopentyl)methyl)benzofuran-2-carboxamide] | < 1 µM | 76.4% | 
O=C(COc1ccc(Cl)c(F)c1)NCC1CCC(NCC(O)COc2ccc(Cl)c(F)c2)C1 (stereo not drawn) [Compound 89, 2-(4-chloro-3-fluorophenoxy)-N-((3-((3-(4-chloro-3-fluorophenoxy)-2-hydroxypropyl)amino)cyclopentyl)methyl)acetamide] | > 1 µM | 119% | 42.5%
O=C(NC1CC[C@H](NC[C@@H](O)COc2ccc(Cl)c(F)c2)C1)c1cc2cc(Cl)ccc2o1 (stereo partly drawn) [Compound 90, 5-chloro-N-((3S)-3-(((R)-3-(4-chloro-3-fluorophenoxy)-2-hydroxypropyl)amino)cyclopentyl)benzofuran-2-carboxamide] | 0.0578 µM | 210% | 269.7%
O=C(NC1CC[C@H](NC[C@H](O)COc2ccc(Cl)c(F)c2)C1)c1cc2cc(Cl)ccc2o1 (stereo partly drawn) [Compound 91, 5-chloro-N-((3S)-3-(((S)-3-(4-chloro-3-fluorophenoxy)-2-hydroxypropyl)amino)cyclopentyl)benzofuran-2-carboxamide] | 1.24 µM | 190% | 209.4%
O=C(COc1ccc(Cl)c(F)c1)NCC1CCN(NC(=O)COc2ccc(Cl)c(F)c2)C1 (stereo not drawn) [Compound 92, 2-(4-chloro-3-fluorophenoxy)-N-(3-((2-(4-chloro-3-fluorophenoxy)acetamido)methyl)pyrrolidin-1-yl)acetamide] | 0.0141 µM | 93.6% | 45.8%
O=C(COc1ccc(Cl)c(F)c1)NCC1CCN(NC(=O)c2ccc3cc(Cl)ccc3n2)C1 (stereo not drawn) [Compound 93, 6-chloro-N-(3-((2-(4-chloro-3-fluorophenoxy)acetamido)methyl)pyrrolidin-1-yl)quinoline-2-carboxamide] | 0.0028 µM | 102% | 51.4%
O=C(N[C@H]1CC[C@H](NC[C@@H](O)COc2ccc(Cl)c(F)c2)C1)c1cc2cc(Cl)ccc2o1 [Compound 94, 5-chloro-N-((1S,3S)-3-(((R)-3-(4-chloro-3-fluorophenoxy)-2-hydroxypropyl)amino)cyclopentyl)benzofuran-2-carboxamide] | 0.0243 µM | 169% | 298.3%
O=C(N[C@@H]1CC[C@@H](NC[C@@H](O)COc2ccc(Cl)c(F)c2)C1)c1cc2cc(Cl)ccc2o1 [Compound 95, 5-chloro-N-((1R,3R)-3-(((R)-3-(4-chloro-3-fluorophenoxy)-2-hydroxypropyl)amino)cyclopentyl)benzofuran-2-carboxamide] | < 1 µM | 186% | 170.5%
O=C(COc1ccc(Cl)c(F)c1)NC[C@@H]1CCN(NC(=O)c2cc3cc(Cl)ccc3o2)C1 [Compound 96, (S)-5-chloro-N-(3-((2-(4-chloro-3-fluorophenoxy)acetamido)methyl)pyrrolidin-1-yl)benzofuran-2-carboxamide] | 0.00497 µM | 110% | 24.5%
O=C(COc1ccc(Cl)c(F)c1)NC[C@H]1CCN(NC(=O)c2cc3cc(Cl)ccc3o2)C1 [Compound 97, (R)-5-chloro-N-(3-((2-(4-chloro-3-fluorophenoxy)acetamido)methyl)pyrrolidin-1-yl)benzofuran-2-carboxamide] | 0.025 µM | 109% | 
